Data reported in ChEMBL document CHEMBL1201862, “PubChem BioAssay data set” (2004).
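The compound was tested at five concentrations on cells cultured in 96-well plates, with a 48-hour exposure period. At the GI50, growth is halved.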 Activity calls are given as the source filed them. Rule as the data show it: active = GI50 up to about 1.1 µM and inactive = higher.

Columns and labels:
Assay in all cases: inhibition of tumour cell growth, NCI panel, 48 h
786-0 = test system: 786-0
A498 = test system: A498
A549 = test system: A549
ACHN = test system: ACHN
BT-549 = test system: BT-549
CAKI-1 = test system: CAKI-1
CCRF-CEM = test system: CCRF-CEM
COLO 205 = test system: COLO 205
DU-145 = test system: DU-145
EKVX = test system: EKVX
HCT-116 = test system: HCT-116
HCT-15 = test system: HCT-15
HL-60 = test system: HL-60
HOP-62 = test system: HOP-62
HOP-92 = test system: HOP-92
HT-29 = test system: HT-29
Hs-578T = test system: Hs-578T
K562 = test system: K562
KM12 = test system: KM12
LOX IMVI = test system: LOX IMVI
M14 = test system: M14
MCF7 = test system: MCF7
MDA-MB-231 = test system: MDA-MB-231
MDA-MB-435 = test system: MDA-MB-435
MDA-N = test system: MDA-N
MOLT-4 = test system: MOLT-4
NCI-H226 = test system: NCI-H226
NCI-H23 = test system: NCI-H23
NCI-H460 = test system: NCI-H460
NCI-H522 = test system: NCI-H522
NCI/ADR-RES = test system: NCI/ADR-RES
OVCAR-3 = test system: OVCAR-3
OVCAR-4 = test system: OVCAR-4
OVCAR-5 = test system: OVCAR-5
OVCAR-8 = test system: OVCAR-8
PC-3 = test system: PC-3
RPMI-8226 = test system: RPMI-8226
RXF 393 = test system: RXF 393
SF-268 = test system: SF-268
SF-295 = test system: SF-295
SF-539 = test system: SF-539
SK-MEL-5 = test system: SK-MEL-5
SK-OV-3 = test system: SK-OV-3
SN12C = test system: SN12C
SNB-19 = test system: SNB-19
SNB-75 = test system: SNB-75
SW-620 = test system: SW-620
T47D = test system: T47D
TK-10 = test system: TK-10
U-251 = test system: U-251
UACC-257 = test system: UACC-257
UACC-62 = test system: UACC-62
UO-31 = test system: UO-31
IGROV-1 = test system: IGROV-1
Malme-3M = test system: Malme-3M
SK-MEL-28 = test system: SK-MEL-28
SK-MEL-2 = test system: SK-MEL-2
SR = test system: SR

For `Nc1nc(N)c2cc(Sc3ccc4ccccc4c3)ccc2n1`, the GI50 (786-0) was 0.479 µM (active), the GI50 (A498) was 11.5 µM (inactive) and the GI50 (A549) was 0.343 µM (active). The GI50 (ACHN) was 0.509 µM (active), the GI50 (BT-549) was 3.61 µM (inactive) and the GI50 (CAKI-1) was 4.52 µM (inactive). The GI50 (CCRF-CEM) was 0.705 µM (active), the GI50 (COLO 205) was 1.63 µM (inactive) and the GI50 (DU-145) was 5.79 µM (inactive). The GI50 (EKVX) was 2.96 µM (inactive), the GI50 (HCT-116) was 1.17 µM (inactive) and the GI50 (HCT-15) was 0.643 µM. The GI50 (HL-60) was 1.38 µM (inactive), the GI50 (HOP-62) was 3.56 µM (inactive) and the GI50 (HOP-92) was 1.14 µM (inactive). For the same molecule, the GI50 (HT-29) was 1.79 µM (inactive), the GI50 (Hs-578T) was 11.9 µM (inactive) and the GI50 (K562) was 0.211 µM (active). For the same molecule, the GI50 (KM12) was 1.98 µM (inactive), the GI50 (LOX IMVI) was 0.627 µM (active) and the GI50 (M14) was 1.23 µM (inactive). The GI50 (MCF7) was 1.3 µM (inactive), the GI50 (MDA-MB-231) was 2.54 µM (inactive) and the GI50 (MDA-MB-435) was 0.687 µM (active). For the same molecule, the GI50 (MDA-N) was 0.733 µM (active), the GI50 (MOLT-4) was 2.8 µM (inactive) and the GI50 (NCI-H226) was 10.7 µM (inactive). The GI50 (NCI-H23) was 5.82 µM (inactive), the GI50 (NCI-H460) was 0.682 µM (active) and the GI50 (NCI-H522) was 2.2 µM (inactive). The GI50 (NCI/ADR-RES) was 1.07 µM (active), the GI50 (OVCAR-3) was 5.89 µM (inactive) and the GI50 (OVCAR-4) was 4.18 µM (inactive). For the same molecule, the GI50 (OVCAR-5) was 3.48 µM (inactive), the GI50 (OVCAR-8) was 1 µM (active) and the GI50 (PC-3) was 1.87 µM (inactive). The GI50 (RPMI-8226) was 2.14 µM (inactive), the GI50 (RXF 393) was 3.32 µM (inactive) and the GI50 (SF-268) was 3.11 µM (inactive). The GI50 (SF-295) was 0.509 µM (active), the GI50 (SF-539) was 1.73 µM (inactive) and the GI50 (SK-MEL-5) was 0.845 µM (active). For the same molecule, the GI50 (SK-OV-3) was 13.8 µM (inactive), the GI50 (SN12C) was 1.03 µM (active) and the GI50 (SNB-19) was 3.48 µM (inactive). For the same molecule, the GI50 (SNB-75) was 14.4 µM (inactive), the GI50 (SW-620) was 0.729 µM (active) and the GI50 (T47D) was 2.12 µM (inactive). The GI50 (TK-10) was 3.1 µM (inactive), the GI50 (U-251) was 2.15 µM (inactive) and the GI50 (UACC-257) was 1.58 µM (inactive). For the same molecule, the GI50 (UACC-62) was 0.568 µM (active) and the GI50 (UO-31) was 2.76 µM (inactive).

With `CN(C)CCNc1ccc(NCC[N+](C)(C)Cc2ccc([N+](=O)[O-])cc2)c2c1C(=O)c1ccccc1C2=O` the GI50 (786-0) was 16.2 µM (inactive), the GI50 (A498) was 17.5 µM (inactive) and the GI50 (A549) was 23.4 µM (inactive). The GI50 (ACHN) was 12.1 µM (inactive), the GI50 (BT-549) was > 25 µM (inactive) and the GI50 (CAKI-1) was 3.01 µM (inactive). For the same molecule, the GI50 (COLO 205) was 7.28 µM (inactive), the GI50 (DU-145) was 14.1 µM (inactive) and the GI50 (EKVX) was > 25 µM (inactive). The GI50 (HCT-116) was 10.9 µM (inactive), the GI50 (HL-60) was 4.28 µM (inactive) and the GI50 (HOP-62) was 19.8 µM (inactive). The GI50 (HOP-92) was > 25 µM (inactive), the GI50 (HT-29) was 16.6 µM (inactive) and the GI50 (Hs-578T) was 19.3 µM (inactive). For the same molecule, the GI50 (IGROV-1) was 14.5 µM (inactive), the GI50 (KM12) was 13.8 µM (inactive) and the GI50 (LOX IMVI) was 15 µM (inactive). For the same molecule, the GI50 (M14) was 21.6 µM (inactive), the GI50 (MCF7) was 11.9 µM (inactive) and the GI50 (MDA-MB-231) was 4.86 µM (inactive). For the same molecule, the GI50 (MDA-MB-435) was > 25 µM (inactive), the GI50 (MDA-N) was 18.3 µM (inactive) and the GI50 (MOLT-4) was 9.04 µM (inactive). For the same molecule, the GI50 (Malme-3M) was 22.6 µM (inactive), the GI50 (NCI-H226) was 23.4 µM (inactive) and the GI50 (NCI-H23) was 20.2 µM (inactive). For the same molecule, the GI50 (NCI-H522) was 8.73 µM (inactive), the GI50 (NCI/ADR-RES) was > 25 µM (inactive) and the GI50 (OVCAR-3) was 12 µM (inactive). For the same molecule, the GI50 (OVCAR-5) was > 25 µM (inactive), the GI50 (OVCAR-8) was > 25 µM (inactive) and the GI50 (PC-3) was 13.6 µM (inactive). For the same molecule, the GI50 (RPMI-8226) was 10.8 µM (inactive), the GI50 (RXF 393) was > 25 µM (inactive) and the GI50 (SF-268) was 11.9 µM (inactive). The GI50 (SF-295) was 18.6 µM (inactive), the GI50 (SK-MEL-28) was > 25 µM (inactive) and the GI50 (SK-MEL-2) was > 25 µM (inactive). The GI50 (SK-MEL-5) was 12.2 µM (inactive), the GI50 (SK-OV-3) was > 25 µM (inactive) and the GI50 (SN12C) was 5.56 µM (inactive). For the same molecule, the GI50 (SNB-75) was > 25 µM (inactive), the GI50 (SR) was 6.15 µM (inactive) and the GI50 (SW-620) was 13.3 µM (inactive). For the same molecule, the GI50 (T47D) was > 25 µM (inactive), the GI50 (TK-10) was > 25 µM (inactive) and the GI50 (U-251) was 19.4 µM (inactive). The GI50 (UACC-257) was 8.41 µM (inactive), the GI50 (UACC-62) was 18.5 µM (inactive) and the GI50 (UO-31) was 9.51 µM (inactive).
